The target in this experiment is T1, Neprilysin (Rattus norvegicus, UniProt P07861).
T1 sequence (P07861 whole entry): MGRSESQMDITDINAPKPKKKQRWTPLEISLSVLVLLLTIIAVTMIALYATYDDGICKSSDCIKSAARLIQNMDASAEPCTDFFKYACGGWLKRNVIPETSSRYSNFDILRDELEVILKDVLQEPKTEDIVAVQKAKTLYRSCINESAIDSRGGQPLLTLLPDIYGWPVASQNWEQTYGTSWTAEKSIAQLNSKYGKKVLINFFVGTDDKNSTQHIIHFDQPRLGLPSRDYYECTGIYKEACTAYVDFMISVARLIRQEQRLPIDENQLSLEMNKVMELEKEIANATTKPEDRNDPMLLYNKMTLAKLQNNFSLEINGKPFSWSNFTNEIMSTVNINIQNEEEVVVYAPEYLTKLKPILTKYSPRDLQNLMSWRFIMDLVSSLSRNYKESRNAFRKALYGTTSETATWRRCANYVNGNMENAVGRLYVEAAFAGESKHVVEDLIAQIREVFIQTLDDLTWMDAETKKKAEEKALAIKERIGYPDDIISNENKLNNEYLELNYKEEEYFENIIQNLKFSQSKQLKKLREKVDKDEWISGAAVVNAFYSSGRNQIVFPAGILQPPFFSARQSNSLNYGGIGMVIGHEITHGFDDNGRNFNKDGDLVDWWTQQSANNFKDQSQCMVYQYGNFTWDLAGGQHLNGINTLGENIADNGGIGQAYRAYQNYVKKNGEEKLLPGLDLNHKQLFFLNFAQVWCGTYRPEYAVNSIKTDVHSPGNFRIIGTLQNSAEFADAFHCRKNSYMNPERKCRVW
In words: The compound was tested for its inhibitory activity against neutral endopeptidase ([…]) in rat kidney.

In general, IC50 refers to the midpoint of a concentration-inhibition curve.

Consider `O=C(O)[C@H]1CCC[C@@H](NC(=O)C2(CS)CCCC2)C1`, for which the IC50 was determined as 215 nM.

`O=C(O)[C@H]1CCC[C@@H](NC(=O)C2(CS)CCCCC2)C1`: the IC50 came to 310 nM. Next, `O=C(N[C@@H]1CCC[C@H](C(=O)O)C1)C(CS)Cc1ccccc1` (stereo not given in full): 180 nM; `O=C(O)[C@H](Cc1ccccc1)NC(=O)C1(CS)CCCC1`: 220 nM; `COCCOC[C@H](CC1(C(=O)N[C@H]2CC[C@@H](C(=O)O)CC2)CCCC1)C(=O)O` [CANDOXATRILAT]: 38 nM.

The record behind these values is ChEMBL document CHEMBL1127225, “Gem-cycloalkyl substituted thiol inhibitors of neutral endopeptidase 24.11. Synthesis via nucleophilic opening of 2,2-spiro--lactones” (Bioorg Med Chem Lett, 1993).
